These results are taken from patent US11612606B2, “8-aminoisoquinoline compounds and uses thereof” (priority 2018, dated 2023).

Series [1] is described as follows: Permeability assay in gMDCKI cells. Type of series: in vitro ADME, canine. The following applies: dog, MDCK, apical-to-basolateral, 2-hour incubation, read-out: MDCK AB Papp. The procedure: Cell permeability of compounds of interest was assessed in the gMDCKI cell line, which is a modified MDCKI (Madin-Darby canine kidney) originally acquired from American Type Culture Collection (Manassa, Va.) and generated at Genentech. […] Test article was tested at 10 μM in the apical-to-basolateral (A-B) and basolateral-to-apical (B-A) directions. Test compound was dissolved in transport buffer consisting of Hank's balanced salt solution and […] (Invitrogen Corporation, Grand Island, N.Y.). Transepithelial electrical resistance (TEER) and lucifer yellow (LY) permeability were used to monitor monolayer integrity at the beginning and the end of the experiments, respectively. Test articles were analyzed by LC-MS/MS.
The efflux ratio (ER) is calculated as (Papp, B−A/Papp, A−B).
Cell permeability were assessed for exemplary compounds of Formula (I).

Series [2] can be described thus: Hepatocyte stability assay. The series is classed as in vitro ADME. The note with it: cryopreserved human hepatocytes (10 donor pool, suspension), scaled hepatic clearance, read-out: HHep Clearance. The procedure:
Metabolic stability of compounds are assessed using a hepatocyte stability assay. Cryopreserved human hepatocytes from a 10 donor pool are quickly thawed at 37° C., suspended in prewarmed In VitroGRO™ HT Medium, and then centrifuged at 100×g at room temperature for 10 min. The supernatants are discarded, and cells are resuspended in 5 mL Dulbecco's Modified Eagle Medium (DMEM) medium. Cell viability in suspension is counted on a Hepatometer® Vision (Lonza, N.C.), and viable cells are then adjusted to […] in DMEM. Compounds are first diluted to 2 μM with DMEM medium, and then aliquots of 125 μL of drug-containing medium are transferred to 96-well non-coated plates. Incubation is initiated by the addition of 125 μL of hepatocyte suspension to yield a total incubation volume of 250 μL. Final concentration of each compound is 1 μM, and final cell density is 0.5×10^6 cells/mL. Incubations are conducted in a humidified incubator at 37° C. Aliquots of 50 μL incubation medium are taken out at different time intervals (0, 60, 120 and 180 min), and immediately mixed with 100 μL of ice-cold acetonitrile containing 50 nM propranolol (internal standard). Samples are then centrifuged at 10,000×g for 10 min, and 80 μL of supernatant is taken out and diluted with 160 μL of water prior to LC/MS-MS analysis.
Human hepatocyte stability was assessed for exemplary compounds of Formula (I) according to the above procedures.

The subject of series [3] is phosphorylation of SLP-76 (S376) by HPK-1 in human Jurkat cells. As to the kind of experiment: pSLP76 assay (sandwich ELISA, anti-CD3 stimulated Jurkat cells). The note with it: Homo sapiens, read-out: pSLP76 IC50. Type of series: cell-based. The procedure:
Phospho-SLP76 (S376) is detected by sandwich ELISA using an anti-pSLP76(S376) capture antibody and a biotinylated anti-SLP76 detection antibody.
Incubate Jurkat cells with varying concentrations of test compounds for 30 minutes in a humidified incubator at 37° C. and 5% CO2. Add anti-CD3 DynaBeads at a 4:1 bead:cell ratio. Stimulate cells in a humidified incubator at 37° C. and 5% CO2 for 10 minutes. Add cold lysis buffer and incubate on a shaker at 4° C. for 30 minutes. Transfer cell lysates to a pre-blocked ELISA plate coated with capture antibody. Incubate at room temperature shaking for 2 hours. Wash ELISA plate 5× with wash buffer and add 25 μl of biotinylated detection antibody at a final concentration of 0.5 μg/ml. Incubate at room temperature shaking for 1 hour. Wash ELISA plate 5× with wash buffer and add 25 μl of streptavidin enzyme conjugate at a final dilution of 1:8000. Incubate at room temperature shaking for 20 minutes. Wash ELISA plate 5× with wash buffer and add 25 μl of TMB substrate solution. Incubate at room temperature in the dark shaking for 20 minutes. Add 25 μl of STOP solution and read on SoftMax Pro for absorbance at 450 nm.
Exemplary compounds of Formula (I) were tested in pSLP76 assays.

In series [4] the test system is primary human pan T cells. The series can be described thus: Human T-cell IL2 induction assay. The series is classed as cell-based. The procedure:
Assay Principle: Anti-CD3 and anti-CD28 activates TCR signaling in primary human pan T cells leading to IL-2 promoter induction. Secreted IL-2 in cell culture supernatant is detected by electrochemiluminescence using a capture antibody against IL-2 and an anti-IL-2 antibody labeled with SULFO-tag. Also see www.mesoscale.com for additional electrochemiluminescence technology information.
Assay Procedure: Incubate primary human pan T cells with varying concentrations of test compounds for 30 minutes in a humidified incubator at 37° C. and 5% CO2. Transfer cells to a plate pre-coated with a fixed concentration of anti-human CD3 (determined separately for each donor lot) and add soluble anti-human CD28 (final concentration=1 μg/ml). Stimulate cells in a humidified incubator at 37° C. and 5% CO2 for 4 hours. Transfer 25 μl of supernatant to a MSD single spot plate pre-coated with an anti-human IL-2 antibody. Incubate MSD plate overnight at 4° C. with gentle shaking. Wash MSD plate 4× with wash buffer. Add SULFO-tagged detection antibody at a 1:50 dilution and incubate at room temperature shaking for 2 hours. Wash MSD plate 4× with wash buffer and add 150 μl 2×MSD read buffer. Read on an MSD instrument. Normalize data to stimulated/untreated controls to calculate % activity at each concentration of compound.
Instrumentation: • Biomek FX for liquid handling (Beckman Coulter) • MSD SECTOR S 600 (Meso Scale Discovery)
Exemplary compounds of Formula (I) were tested in the human T-cell IL-2 induction assays.

Series [5] is described as follows: Pharmacokinetic study in rat. Type of series: in vivo, Sprague Dawley rat. The following applies: male, Sprague Dawley. The procedure: Pharmacokinetic Study in Rat: Male Sprague Dawley rats obtained from Lingchang/Vital River Laboratory Animal Technology Co., Ltd., (Shanghai/Beijing, P.R. China) with body weight ranging between 200 g to 300 g were use in the PK studies. Group of 3 rats were given a 1 mg/kg intravenous bolus (IV) dose of the test article in solution formulation, and another group of 3 rats were given a 2 or 5 mg/kg oral (PO) dose of test article as a 0.5% methylcellulose with 0.2% Tween 80 (MCT) suspension or as a solution. Blood samples (250 μL, per time point) were collected serially via the catheter in femoral artery at 0.033, 0.083, 0.25, 0.5, 1, 2, 4, 6, and 8 hours after IV or PO administration from each of the rat. Blood samples were collected into pre-chilled tubes containing Potassium (K2) EDTA and centrifuged at 3,200 g for 10 minutes at 2 to 8° C. within 1 hour of collection to harvest plasma. Plasma samples were stored at −70° C. until LC/MS/MS analysis. Concentration in each plasma sample was determined by a non-validated LC/MS/MS. Data is acquired using multiple reaction monitoring (MRM) with specific transitions monitored for each compound.
Following PO administration, percent bioavailability (% F) was determined for each animal by dividing the dose normalized area under the plasma concentration-time curve, extrapolated to infinity (AUCinf) obtained following each PO dose by the mean dose normalized AUCinf of the animals dosed by IV injection. All PK parameters are presented as mean±standard deviation (SD).
Pharmacokinetic studies were conducted in rat for exemplary compounds of Formula (I).

The target in series [6] is HPK full length, T165E S171E (Homo sapiens (Human), UniProt Q92918, S171E/T165E). The series can be described thus: HPK1-FL HTRF enzymatic assay ("HTRF"). Type of series: biochemical. The note with it: ATP 1 mM. In a few lines: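 Full-length HPK1 (T165E/S171E) was preincubated 30 min with compound, then reacted 60 min with biotin-SLP-76 and 1 mM ATP. Phospho-SLP-76 was detected by HTRF (Eu-anti-pSLP76 antibody, SA-XL665) after a further 60 min.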
For orientation: TR-FRET usually uses a lanthanide donor and a delayed reading to cut background.

The mark [7] stands for this setting: Jurkat cells, anti-CD3 stimulation.
Setting [8] is: plasma, PO 2 mg/kg, 10% DMSO/60% PEG400/30% Water, Solution.

Like-named read-outs stand apart in the source and are kept apart here.

A word on the Papp: it is the rate of passage across a membrane or cell layer, normalised by area and donor concentration. In general, IC50 refers to the midpoint of a concentration-inhibition curve. As usually defined, the bioavailability is dose-corrected exposure relative to a reference, in per cent. Usually Ki stands for the dissociation constant of the complex between target and ligand, obtained from inhibition or displacement.

Chain of HPK full length, T165E S171E (Q92918 whole entry T165E/S171E, looked up): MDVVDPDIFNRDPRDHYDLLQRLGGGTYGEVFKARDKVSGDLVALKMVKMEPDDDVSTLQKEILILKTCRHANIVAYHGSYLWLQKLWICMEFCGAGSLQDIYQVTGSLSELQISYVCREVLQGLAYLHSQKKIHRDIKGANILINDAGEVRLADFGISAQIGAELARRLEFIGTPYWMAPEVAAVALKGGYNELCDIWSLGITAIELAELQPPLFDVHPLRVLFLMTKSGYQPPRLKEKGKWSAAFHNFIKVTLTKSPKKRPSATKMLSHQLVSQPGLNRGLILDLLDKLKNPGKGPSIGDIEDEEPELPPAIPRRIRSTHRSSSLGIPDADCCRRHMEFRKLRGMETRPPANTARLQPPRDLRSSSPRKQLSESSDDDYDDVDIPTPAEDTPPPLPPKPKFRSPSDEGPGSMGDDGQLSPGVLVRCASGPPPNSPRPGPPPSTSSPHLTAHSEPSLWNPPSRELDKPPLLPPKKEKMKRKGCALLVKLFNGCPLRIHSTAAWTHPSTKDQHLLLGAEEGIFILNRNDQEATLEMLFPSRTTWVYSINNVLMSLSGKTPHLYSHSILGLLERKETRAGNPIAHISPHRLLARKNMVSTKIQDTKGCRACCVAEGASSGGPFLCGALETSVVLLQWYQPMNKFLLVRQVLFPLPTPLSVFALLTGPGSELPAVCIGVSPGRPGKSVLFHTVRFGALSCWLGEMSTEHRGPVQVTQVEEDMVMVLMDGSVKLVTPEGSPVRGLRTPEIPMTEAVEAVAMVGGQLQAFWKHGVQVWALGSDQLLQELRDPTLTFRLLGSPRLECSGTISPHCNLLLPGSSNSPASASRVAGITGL

On to `Cc1c(-c2cc3cc(NC(=O)O[C@@H]4COC[C@@H]4F)ncc3c(N)c2F)cnc2c1NCCO2` (single isomer, unassigned) [Compound 477d], for which, in series [1], the Papp at 2 h, 10 μM was found to be 16 ×10⁻⁶ cm/s. The CLhep predicted at 1 μM in series [2] was 5.7 mL/min/kg. For the same compound, the IC50 in series [3] (setting [7]) came out at 66 nM. Besides, the “% IL-2 increase relative to untreated cells” value in series [4] (assayed concentration 8.33 μM) was 1745%. This compound also yielded a bioavailability in series [5] (setting [8]) of 43%. The compound also gave a Ki in series [6] (HPK1 Ki) of 0.02 nM.
In the case of `CNc1cncc(-c2cc3cc(NC(=O)OC4CC(C)(O)C4)ncc3c(N)c2F)c1C` (centres unmarked) [Compound 527, 3-Hydroxy-3-methylcyclobutyl(8-amino-7-fluoro-6-(4-methyl-5-(methylamino)pyridin-3-yl)isoquinolin-3-yl)carbamate], the Papp at 2 h, 10 μM in series [1] was 13 ×10⁻⁶ cm/s. For the same compound, the CLhep predicted at 1 μM in series [2] is 11 mL/min/kg. Moreover, in series [3] (Jurkat), the IC50 came out at 64 nM. Also, the “% IL-2 increase relative to untreated cells” value in series [4] (assayed concentration 2.778 μM) is 738%. In series [5] (plasma, PO 2 mg/kg, MCT, Suspension), this compound came in with a bioavailability of 12%.
As for `Cc1c(-c2cc3cc(NC(=O)O[C@H]4C[C@H](C#N)C4)ncc3c(N)c2F)cnc2c1NCCO2` [Compound 484b, (1r,3r)-(3-Cyanocyclobutyl) N-[8-amino-7-fluoro-6-(8-methyl-2,3-dihydro-1H-pyrido[2,3-b][1,4]oxazin-7-yl)-3-isoquinolyl]carbamate], the Papp at 2 h, 10 μM in series [1] came out at 19 ×10⁻⁶ cm/s. Besides, the CLhep predicted at 1 μM in series [2] is 7.9 mL/min/kg. Moreover, in series [3] (setting [7]), the IC50 stood at 26 nM. For the same compound, the “% IL-2 increase relative to untreated cells” value in series [4] (assayed concentration 2.778 μM) stood at 1782%. In series [5] (plasma, PO 5 mg/kg, 10% DMSO/60% PEG400/30% Water, Solution), this compound displayed a bioavailability of 16%. The Ki in series [6] (read-out: HPK1 Ki) amounted to 0.015 nM.
With `CO[C@H]1COC[C@@H]1OC(=O)Nc1cc2cc(-c3cnc4c(c3C)NCCO4)c(F)c(N)c2cn1` (single isomer, unassigned) [Compound 546a], the Papp at 2 h, 10 μM in series [1] was determined as 10 ×10⁻⁶ cm/s. Also, the CLhep predicted at 1 μM in series [2] was 6.5 mL/min/kg. For the same compound, in series [3] (setting [7]), the IC50 was found to be 62 nM. Besides, the “% IL-2 increase relative to untreated cells” value in series [4] (assayed concentration 8.33 μM) is given as 914%. The compound also had a bioavailability in series [5] (plasma, PO 5 mg/kg, 10% DMSO/35% PEG400/55% Water, Solution) of 22%. For the same compound, the Ki in series [6] (read-out: HPK1 Ki) is < 0.013 nM.
Consider `Cc1c(-c2cc3cc(NC(=O)N4CC(C)C4)ncc3c(N)c2F)cnc2c1NCCO2` [Compound 751, N-(8-Amino-7-fluoro-6-(8-methyl-2,3-dihydro-1H-pyrido[2,3-b][1,4]oxazin-7-yl)isoquinolin-3-yl)-3-methylazetidine-1-carboxamide], for which the Papp at 2 h, 10 μM in series [1] came to 11 ×10⁻⁶ cm/s. Besides, in series [2], the CLhep predicted at 1 μM was < 6.2 mL/min/kg. Moreover, in series [3] (setting [7]), the IC50 was 41 nM. Also, in series [4] (assayed concentration 2.778 μM), the “% IL-2 increase relative to untreated cells” value was determined as 1363%. Besides, the bioavailability in series [5] (setting [8]) turned out to be 9.4%. In addition, in series [6] (read-out: HPK1 Ki), the Ki worked out at 0.044 nM.
As for `Cc1c(-c2cc3cc(NC(=O)OC4CCOCC4)ncc3c(N)c2F)cnc2c1NCCO2` [Compound 401, Tetrahydropyran-4-yl N-[8-amino-7-fluoro-6-(8-methyl-2,3-dihydro-1H-pyrido[2,3-b][1,4]oxazin-7-yl)-3-isoquinolyl]carbamate], the Papp at 2 h, 10 μM in series [1] was found to be 18 ×10⁻⁶ cm/s. Also, the CLhep predicted at 1 μM in series [2] was 9.2 mL/min/kg. In addition, the IC50 in series [3] (Jurkat) turned out to be 97 nM. In addition, the bioavailability in series [5] (plasma, PO 5 mg/kg, MCT, Suspension) came out at 16%. The Ki in series [6] (read-out: HPK1 Ki) came out at 0.019 nM.
In the case of `Cc1c(-c2cc3cc(NC(=O)O[C@@H]4CCOC4)ncc3c(N)c2F)cnc2c1NCCO2` [Compound 403a, (R)-Tetrahydrofuran-3-yl (8-amino-7-fluoro-6-(8-methyl-2,3-dihydro-1H-pyrido[2,3-b][1,4]oxazin-7-yl)isoquinolin-3-yl)carbamate], the Papp at 2 h, 10 μM in series [1] turned out to be 10 ×10⁻⁶ cm/s. Also, in series [2], the CLhep predicted at 1 μM was 7.7 mL/min/kg. The IC50 in series [3] (setting [7]) was 48 nM. For the same compound, the bioavailability in series [5] (plasma, PO 5 mg/kg, 10/90 DMSO/MCT, Suspension) was 4%. Also, the Ki in series [6] (HPK1 Ki) was < 0.013 nM.
With `CCc1c(-c2cc3cc(NC(=O)O[C@@H]4COC[C@H]4C)ncc3c(N)c2F)cnc2c1NCCO2.Cl` (single isomer, unassigned) [Compound 555b, (3S,4R)-4-Methyltetrahydrofuran-3-yl (8-amino-6-(8-ethyl-2,3-dihydro-1H-pyrido[2,3-b][1,4]oxazin-7-yl)-7-fluoroisoquinolin-3-yl)carbamate hydrochloride], the Papp at 2 h, 10 μM in series [1] is 15 ×10⁻⁶ cm/s. Also, the bioavailability in series [5] (in vivo, PO 2 mg/kg, 10% DMSO/60% PEG400/30% Water, Solution) is 34%.
`CCc1c(-c2cc3cc(NC(=O)O[C@@H]4COC[C@H]4C)ncc3c(N)c2F)cnc2c1NCCO2.Cl` (single isomer, unassigned) [Compound 555b, hydrochloride]: the CLhep predicted at 1 μM in series [2] is 13 mL/min/kg. In series [3] (setting [7]), the IC50 came to 24 nM. Moreover, in series [6] (read-out: HPK1 Ki), the Ki was < 0.013 nM.
